Measurements as given in patent US20150087627A1, “COMBINATION OF KINASE INHIBITORS AND USES THEREOF” (Intellikine LLC, priority 2011, published 2015).
pIC50: −log10 of the molar value. Where two headings read alike, the source gives them in different places.

Legend:
Type in all cases: biochemical
mTOR = molecular target: T1, mTOR (Homo sapiens, UniProt P42345); assay: mTOR kinase inhibition assay (radiometric or LanthaScreen TR-FRET); details: read-out: mTORC IC50
T1 construct: purchased Invitrogen
T1 sequence (P42345 1360-2549 limits assumed): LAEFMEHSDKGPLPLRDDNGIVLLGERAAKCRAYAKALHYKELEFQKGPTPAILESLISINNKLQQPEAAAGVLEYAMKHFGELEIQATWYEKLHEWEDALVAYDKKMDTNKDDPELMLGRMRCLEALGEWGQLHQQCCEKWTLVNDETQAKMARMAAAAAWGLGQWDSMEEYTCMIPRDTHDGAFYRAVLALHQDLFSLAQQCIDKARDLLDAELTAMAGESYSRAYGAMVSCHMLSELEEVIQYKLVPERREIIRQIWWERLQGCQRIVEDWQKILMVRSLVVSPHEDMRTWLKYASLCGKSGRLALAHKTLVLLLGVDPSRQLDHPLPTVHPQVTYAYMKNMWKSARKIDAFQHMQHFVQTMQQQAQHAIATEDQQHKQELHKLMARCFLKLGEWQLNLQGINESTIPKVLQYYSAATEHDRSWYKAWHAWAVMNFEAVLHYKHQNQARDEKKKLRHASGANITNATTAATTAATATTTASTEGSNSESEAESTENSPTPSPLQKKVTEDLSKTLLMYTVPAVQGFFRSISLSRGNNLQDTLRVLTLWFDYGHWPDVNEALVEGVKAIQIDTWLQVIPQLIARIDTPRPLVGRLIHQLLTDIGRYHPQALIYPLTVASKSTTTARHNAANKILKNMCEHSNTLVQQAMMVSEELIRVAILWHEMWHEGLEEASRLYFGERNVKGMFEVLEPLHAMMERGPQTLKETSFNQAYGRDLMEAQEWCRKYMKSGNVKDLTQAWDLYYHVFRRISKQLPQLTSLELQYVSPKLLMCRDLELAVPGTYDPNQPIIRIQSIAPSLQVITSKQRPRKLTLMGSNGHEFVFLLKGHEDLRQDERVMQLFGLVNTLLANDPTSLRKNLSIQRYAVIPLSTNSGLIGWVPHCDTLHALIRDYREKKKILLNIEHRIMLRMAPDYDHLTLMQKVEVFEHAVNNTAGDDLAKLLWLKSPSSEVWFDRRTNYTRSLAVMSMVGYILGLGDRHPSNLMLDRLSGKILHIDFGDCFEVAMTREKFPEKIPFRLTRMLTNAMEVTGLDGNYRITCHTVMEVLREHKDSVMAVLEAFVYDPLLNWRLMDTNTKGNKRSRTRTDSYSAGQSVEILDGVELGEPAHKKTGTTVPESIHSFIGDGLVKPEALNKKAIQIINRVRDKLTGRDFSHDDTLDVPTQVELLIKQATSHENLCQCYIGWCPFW

PI3K δ = molecular target: T2, PI3K δ (Homo sapiens, UniProt O00329); assay: PI 3-Kinase (human) HTRF assay, PI3K δ; details: read-out: PI3K δ IC50
T2 construct: purchased Upstate / Millipore Corporation
T2 sequence (O00329 whole entry): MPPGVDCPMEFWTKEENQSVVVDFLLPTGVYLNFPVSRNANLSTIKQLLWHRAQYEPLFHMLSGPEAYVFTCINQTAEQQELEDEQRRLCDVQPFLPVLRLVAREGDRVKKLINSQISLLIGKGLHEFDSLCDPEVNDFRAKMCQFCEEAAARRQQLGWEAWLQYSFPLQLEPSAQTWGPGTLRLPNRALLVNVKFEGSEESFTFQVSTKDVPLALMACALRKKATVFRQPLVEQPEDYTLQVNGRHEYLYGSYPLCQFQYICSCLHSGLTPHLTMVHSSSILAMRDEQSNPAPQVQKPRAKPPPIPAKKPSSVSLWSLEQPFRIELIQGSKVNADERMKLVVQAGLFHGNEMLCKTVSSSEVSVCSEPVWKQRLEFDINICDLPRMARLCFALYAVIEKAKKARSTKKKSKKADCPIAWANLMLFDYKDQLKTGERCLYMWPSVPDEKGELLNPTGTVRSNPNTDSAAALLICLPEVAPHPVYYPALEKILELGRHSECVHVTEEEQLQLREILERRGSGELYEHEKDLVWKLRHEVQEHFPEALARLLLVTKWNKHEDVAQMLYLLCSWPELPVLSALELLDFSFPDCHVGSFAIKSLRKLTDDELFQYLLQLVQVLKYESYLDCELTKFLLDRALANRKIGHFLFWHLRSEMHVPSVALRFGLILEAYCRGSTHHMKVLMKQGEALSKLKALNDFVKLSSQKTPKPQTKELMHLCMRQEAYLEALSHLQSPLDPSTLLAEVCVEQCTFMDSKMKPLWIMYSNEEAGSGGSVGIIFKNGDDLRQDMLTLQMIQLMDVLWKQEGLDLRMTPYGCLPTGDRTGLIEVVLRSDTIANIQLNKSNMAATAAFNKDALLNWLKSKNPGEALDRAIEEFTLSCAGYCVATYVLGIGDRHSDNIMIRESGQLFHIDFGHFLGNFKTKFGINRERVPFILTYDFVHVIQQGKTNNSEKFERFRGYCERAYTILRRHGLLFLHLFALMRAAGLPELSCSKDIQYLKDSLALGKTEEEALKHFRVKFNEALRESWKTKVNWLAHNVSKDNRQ
T2 sequence (P27986 whole entry partner): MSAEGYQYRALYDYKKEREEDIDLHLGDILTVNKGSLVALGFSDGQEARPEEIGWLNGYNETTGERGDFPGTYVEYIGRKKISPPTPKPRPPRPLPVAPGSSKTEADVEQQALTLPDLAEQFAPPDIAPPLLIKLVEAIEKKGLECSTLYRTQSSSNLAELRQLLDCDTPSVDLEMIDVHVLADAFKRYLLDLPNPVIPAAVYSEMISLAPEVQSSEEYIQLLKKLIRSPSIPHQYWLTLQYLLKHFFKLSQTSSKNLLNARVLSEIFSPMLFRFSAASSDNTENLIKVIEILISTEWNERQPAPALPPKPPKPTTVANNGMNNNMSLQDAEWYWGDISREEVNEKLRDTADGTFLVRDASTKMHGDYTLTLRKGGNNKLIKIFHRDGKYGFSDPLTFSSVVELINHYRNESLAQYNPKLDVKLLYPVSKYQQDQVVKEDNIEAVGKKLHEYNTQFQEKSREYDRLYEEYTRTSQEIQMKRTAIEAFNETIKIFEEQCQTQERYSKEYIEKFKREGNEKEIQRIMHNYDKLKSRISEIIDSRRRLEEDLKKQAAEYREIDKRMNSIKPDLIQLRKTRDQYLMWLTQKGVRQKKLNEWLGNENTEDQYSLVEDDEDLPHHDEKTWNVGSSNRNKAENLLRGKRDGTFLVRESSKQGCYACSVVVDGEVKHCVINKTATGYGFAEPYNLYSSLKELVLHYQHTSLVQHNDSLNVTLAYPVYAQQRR
Experimental: Briefly, the assay is a time resolved FRET assay that indirectly measures PIP3 product formed by the activity of a PI3-K. The kinase reaction is performed in a microtiter plate (e.g., a 384 well microtiter plate). The total reaction volume is approximately 20 ul per well. In the first step, each well receives 2 ul of test compound in 20% dimethylsulphoxide resulting in a 2% DMSO final concentration. […] The plate is sealed and incubated for 15 minutes at room temperature. […] The plate is sealed and incubated for 1 hour at room temperature. The reaction is stopped by adding 5 ul of Stop Solution per well and then 5 ul of Detection Mix is added per well. The plate is sealed, incubated for 1 hour at room temperature, and then read on an appropriate plate reader. Data is analyzed and IC50s are generated using GraphPad Prism 5.

PI3K γ (p110γ) = molecular target: T3, PI3K γ (p110γ) (Homo sapiens, UniProt P48736); assay: PI 3-Kinase (human) HTRF assay, PI3K γ; details: read-out: PI3K γ IC50
T3 construct: purchased Upstate / Millipore Corporation
T3 sequence (P48736 whole entry): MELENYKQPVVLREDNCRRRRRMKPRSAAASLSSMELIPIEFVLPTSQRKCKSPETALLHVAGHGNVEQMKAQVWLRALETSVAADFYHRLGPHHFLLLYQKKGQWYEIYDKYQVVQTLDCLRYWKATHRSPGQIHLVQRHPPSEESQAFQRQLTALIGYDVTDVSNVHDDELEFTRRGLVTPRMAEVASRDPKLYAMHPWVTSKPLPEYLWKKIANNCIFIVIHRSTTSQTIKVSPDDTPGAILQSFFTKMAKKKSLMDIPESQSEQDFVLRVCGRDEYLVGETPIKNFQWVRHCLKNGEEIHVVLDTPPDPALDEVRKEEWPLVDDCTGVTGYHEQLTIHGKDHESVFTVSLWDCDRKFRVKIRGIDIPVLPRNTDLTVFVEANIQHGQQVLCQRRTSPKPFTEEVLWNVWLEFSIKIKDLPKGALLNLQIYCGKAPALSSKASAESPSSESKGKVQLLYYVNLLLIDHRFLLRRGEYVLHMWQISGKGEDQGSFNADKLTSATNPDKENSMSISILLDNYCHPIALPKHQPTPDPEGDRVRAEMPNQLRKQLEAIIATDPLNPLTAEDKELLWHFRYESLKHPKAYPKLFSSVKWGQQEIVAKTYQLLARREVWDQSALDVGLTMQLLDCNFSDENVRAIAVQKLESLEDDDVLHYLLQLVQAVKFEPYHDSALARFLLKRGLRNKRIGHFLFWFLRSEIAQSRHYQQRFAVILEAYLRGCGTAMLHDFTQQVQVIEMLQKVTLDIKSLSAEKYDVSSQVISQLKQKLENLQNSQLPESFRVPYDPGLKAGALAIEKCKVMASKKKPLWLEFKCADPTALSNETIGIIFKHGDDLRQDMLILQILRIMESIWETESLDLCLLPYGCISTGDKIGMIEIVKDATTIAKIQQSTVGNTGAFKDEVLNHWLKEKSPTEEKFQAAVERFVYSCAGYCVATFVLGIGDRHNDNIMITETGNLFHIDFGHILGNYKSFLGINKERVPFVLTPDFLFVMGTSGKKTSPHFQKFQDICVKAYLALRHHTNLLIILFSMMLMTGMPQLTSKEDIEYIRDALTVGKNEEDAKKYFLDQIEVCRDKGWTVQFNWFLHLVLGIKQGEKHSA

PI3K α (p110α/p85α) = molecular target: T4, PI3K α (p110α/p85α) (Homo sapiens, UniProt P42336); assay: PI 3-Kinase (human) HTRF assay, PI3K α; details: read-out: PI3K α IC50
T4 construct: purchased Upstate / Millipore Corporation

PI3K β (p110β/p85α) = molecular target: T5, PI3K β (p110β/p85α) (Homo sapiens, UniProt P42338); assay: PI 3-Kinase (human) HTRF assay, PI3K β; details: read-out: PI3K β IC50
T5 construct: purchased Upstate / Millipore Corporation

| SMILES | pIC50 (mTOR) | pIC50 (PI3K δ) | pIC50 (PI3K γ (p110γ)) | pIC50 (PI3K α (p110α/p85α)) | pIC50 (PI3K β (p110β/p85α)) | pIC50 (mTOR; Table 4 (PI3K α inhibitors)) | pIC50 (PI3K δ; Table 4 (PI3K α inhibitors)) | pIC50 (PI3K γ (p110γ); Table 4 (PI3K α inhibitors)) | pIC50 (PI3K α (p110α/p85α); Table 4 (PI3K α inhibitors)) | pIC50 (PI3K β (p110β/p85α); Table 4 (PI3K α inhibitors)) |
| --- | --- | --- | --- | --- | --- | --- | --- | --- | --- | --- |
| CN1CCN(C(=O)C2CN(c3cnc4ccc(-c5ccc6oc(N)nc6c5)cc4n3)C2)CC1 [Compound 170] | > 5.00 | > 6.00 | > 5.00 | > 7.00 | > 6.00 | – | – | – | – | – |
| Nc1nc2cc(-c3ccc4ncc(N5CCC(N6CCOCC6)CC5)nc4c3)ccc2o1 [Compound 171] | < 5.00 | > 6.00 | > 6.00 | > 7.00 | > 6.00 | – | – | – | – | – |
| Nc1ncc(-c2ccc3oc(N)nc3c2)cn1 [Compound 233] | < 5.00 | < 5.00 | > 5.00 | < 5.00 | < 5.00 | – | – | – | – | – |
| CC(=O)Nc1cn2cc(-c3ccc4oc(N)nc4c3)ccc2n1 [Compound 234] | > 6.00 | > 7.00 | > 7.00 | > 7.00 | > 6.00 | – | – | – | – | – |
| CC(=O)Nc1ncc(-c2ccc3oc(N)nc3c2)s1 [Compound 235] | > 5.00 | > 5.00 | > 5.00 | > 5.00 | < 5.00 | – | – | – | – | – |
| Nc1nc2cc(-c3ccc4ncc(N5CC[C@H](O)C5)nc4c3)ccc2o1 [Compound 262] | > 5.00 | < 5.00 | > 6.00 | > 7.00 | > 6.00 | – | – | – | – | – |
| C[C@@H]1CN(C(=O)C2CN(c3cnc4ccc(-c5ccc6oc(N)nc6c5)cc4n3)C2)CCN1 [Compound 267] | > 5.00 | > 6.00 | > 6.00 | > 7.00 | > 5.00 | – | – | – | – | – |
| Nc1nc2cc(-c3ccc4ncc(N5CC(C(=O)N6CCN(C7CC7)CC6)C5)nc4c3)ccc2o1 [Compound 276] | > 5.00 | > 6.00 | > 6.00 | > 7.00 | > 5.00 | – | – | – | – | – |
| CN1CCN(c2cnc3ccc(-c4ccc5oc(N)nc5c4)cc3n2)CC1=O [Compound 277] | > 5.00 | > 5.00 | > 6.00 | > 7.00 | > 6.00 | – | – | – | – | – |
| Nc1nc2cc(-c3ccc4ncc(N5CCN(C(=O)[C@@H](N)CO)CC5)nc4c3)ccc2o1 [Compound 298] | > 5.00 | > 5.00 | > 5.00 | > 7.00 | > 6.00 | – | – | – | – | – |
| CN1CCN(C2CN(C(=O)c3cnc4ccc(-c5ccc6oc(N)nc6c5)cn34)C2)CC1 [Compound 303] | > 5.00 | > 5.00 | < 5.00 | > 7.00 | < 5.00 | – | – | – | – | – |
| Nc1nc2cc(-c3ccc4ncc(N5CC(N6CCN(C7CC7)CC6)C5)nc4c3)ccc2o1 [Compound 313] | > 5.00 | > 5.00 | > 5.00 | > 7.00 | > 5.00 | – | – | – | – | – |
| Nc1nc2cc(-c3ccc4ncc(N5CC(N6CC[C@@H](O)C6)C5)nc4c3)ccc2o1 [Compound 315] | > 6.00 | > 5.00 | > 5.00 | > 7.00 | > 5.00 | – | – | – | – | – |
| Nc1nc2cc(-c3ccc4ncc(N5CC(n6cccn6)C5)nc4c3)ccc2o1 [Compound 318] | > 6.00 | < 5.00 | > 6.00 | > 7.00 | > 5.00 | – | – | – | – | – |
| Cc1ccn(C2CN(c3cnc4ccc(-c5ccc6oc(N)nc6c5)cc4n3)C2)n1 [Compound 320] | < 5.00 | > 5.00 | > 5.00 | > 7.00 | > 5.00 | – | – | – | – | – |
| CN1CCN(C2CN(c3cnc4ccc(-c5ccc6oc(N)nc6c5)cc4n3)C2)CC1=O [Compound 323] | < 5.00 | > 5.00 | > 6.00 | > 7.00 | > 5.00 | – | – | – | – | – |
| CCN(CC)C1CN(c2cnc3ccc(-c4ccc5oc(N)nc5c4)cc3n2)C1 [Compound 324] | < 5.00 | > 5.00 | > 6.00 | > 7.00 | > 5.00 | – | – | – | – | – |
| Nc1nc2cc(-c3ccc4ncc(N5CC(N6CCNCC6)C5)nc4c3)ccc2o1 [Compound 326] | < 5.00 | > 6.00 | > 6.00 | > 7.00 | > 6.00 | – | – | – | – | – |
| CC(=O)N1CCN(C2CN(c3cnc4ccc(-c5ccc6oc(N)nc6c5)cc4n3)C2)CC1 [Compound 327] | < 5.00 | > 6.00 | > 6.00 | > 7.00 | > 5.00 | – | – | – | – | – |
| CS(=O)(=O)N1CCN(C2CN(c3cnc4ccc(-c5ccc6oc(N)nc6c5)cc4n3)C2)CC1 [Compound 328] | < 5.00 | > 5.00 | > 5.00 | > 7.00 | > 5.00 | – | – | – | – | – |
| CCN1CCN(C2CN(c3cnc4ccc(-c5ccc6oc(N)nc6c5)cc4n3)C2)CC1 [Compound 329] | < 5.00 | > 6.00 | > 5.00 | > 7.00 | > 6.00 | – | – | – | – | – |

| SMILES | pIC50 (mTOR) | pIC50 (PI3K δ) | pIC50 (PI3K γ (p110γ)) | pIC50 (PI3K α (p110α/p85α)) | pIC50 (PI3K β (p110β/p85α)) | pIC50 (mTOR; Table 4 (PI3K α inhibitors)) | pIC50 (PI3K δ; Table 4 (PI3K α inhibitors)) | pIC50 (PI3K γ (p110γ); Table 4 (PI3K α inhibitors)) | pIC50 (PI3K α (p110α/p85α); Table 4 (PI3K α inhibitors)) | pIC50 (PI3K β (p110β/p85α); Table 4 (PI3K α inhibitors)) |
| --- | --- | --- | --- | --- | --- | --- | --- | --- | --- | --- |
| COC(=O)N1CCC(n2ncc3c(N4CCOCC4)nc(-c4ccc5oc(N)nc5c4)nc32)CC1 [Compound 330] | > 6.00 | < 5.00 | < 5.00 | > 6.00 | > 5.00 | – | – | – | – | – |
| CC(C)N1CCN(C2CN(c3cnc4ccc(-c5ccc6oc(N)nc6c5)cc4n3)C2)CC1 [Compound 331] | < 5.00 | > 5.00 | > 5.00 | > 7.00 | > 5.00 | – | – | – | – | – |
| Nc1nc2cc(-c3ccc4ncc(N5CC(N6CCN(CCO)CC6)C5)nc4c3)ccc2o1 [Compound 333] | < 5.00 | > 6.00 | > 5.00 | > 7.00 | > 5.00 | – | – | – | – | – |
| Nc1nc2cc(-c3ccc4ncc(N5CC(N6CCN(CC7CC7)CC6)C5)nc4c3)ccc2o1 [Compound 335] | < 5.00 | > 5.00 | < 5.00 | > 7.00 | > 5.00 | – | – | – | – | – |
| Nc1nc2cc(-c3ccc4ncc(N5CCC(n6ccnc6)CC5)nc4c3)ccc2o1 [Compound 345] | > 5.00 | > 6.00 | > 6.00 | > 7.00 | > 6.00 | – | – | – | – | – |
| Nc1nc2cc(-c3nc(N4CCOCC4)c4cnn(C5CCNCC5)c4n3)ccc2o1 [Compound 348] | > 6.00 | > 5.00 | > 6.00 | > 6.00 | > 7.00 | – | – | – | – | – |
| C[C@H]1CN(C2CN(c3cnc4ccc(-c5ccc6oc(N)nc6c5)cc4n3)C2)CCN1 [Compound 350] | < 5.00 | > 5.00 | < 5.00 | > 7.00 | > 5.00 | – | – | – | – | – |
| Cc1cc2oc(N)nc2cc1-c1ccc2ncc(N3CC(N4CCOCC4)C3)nc2c1 [Compound 353] | < 5.00 | < 5.00 | < 5.00 | > 5.00 | < 5.00 | – | – | – | – | – |
| Cc1nccn1C1CN(c2cnc3ccc(-c4ccc5oc(N)nc5c4)cc3n2)C1 [Compound 354] | > 5.00 | > 5.00 | > 5.00 | > 7.00 | > 5.00 | – | – | – | – | – |
| Nc1nc2cc(-c3ccc4ncc(N5CC(N6CCOCC6)C5)nc4c3)c(F)cc2o1 [Compound 373] | < 5.00 | > 5.00 | > 5.00 | > 7.00 | > 5.00 | – | – | – | – | – |
| CS(=O)(=O)N1CCN(C2CCN(c3cnc4ccc(-c5ccc6oc(N)nc6c5)cc4n3)CC2)CC1 [Compound 377] | > 5.00 | > 5.00 | > 6.00 | > 7.00 | > 5.00 | – | – | – | – | – |
| CN1CCN([C@@H]2CCN(c3cnc4ccc(-c5ccc6oc(N)nc6c5)cc4n3)C2)CC1 [Compound 379] | > 5.00 | > 5.00 | < 5.00 | > 7.00 | > 6.00 | – | – | – | – | – |
| COc1ncc(-c2ccc3ncc(C(=O)N4CCOCC4)n3c2)cc1NS(=O)(=O)c1ccc(F)cc1F [Compound 417] | > 6.00 | > 7.00 | > 7.00 | > 7.00 | > 7.00 | – | – | – | – | – |
| O=C(c1cnc2ccc(-c3cnc(Cl)c(NS(=O)(=O)c4ccc(F)cc4F)c3)cn12)N1CCOCC1 [Compound 419] | > 6.00 | > 7.00 | > 7.00 | > 7.00 | > 7.00 | – | – | – | – | – |
| NCC(=O)N1CCN(c2cnc3ccc(-c4ccc5oc(N)nc5c4)nc3c2)CC1 [Compound 588] | – | – | – | – | – | < 5.00 | > 6.00 | > 6.00 | > 7.00 | > 6.00 |
| Nc1nc2cc(-c3ccc4ncc(N5CCN(C(=O)C6(N)CC6)CC5)nc4n3)ccc2o1 [Compound 592] | – | – | – | – | – | > 5.00 | > 5.00 | > 7.00 | > 7.00 | > 5.00 |
| CC(C)(N)C(=O)N1CCN(c2cnc3ccc(-c4ccc5oc(N)nc5c4)nc3c2)CC1 [Compound 594] | – | – | – | – | – | < 5.00 | > 6.00 | > 6.00 | > 7.00 | > 5.00 |
| CC(C)N1CCN(c2cnc3ccc(-c4ccc5oc(N)nc5c4)nc3c2)CC1 [Compound 595] | – | – | – | – | – | < 5.00 | > 6.00 | > 6.00 | > 7.00 | > 6.00 |
| CC(C)N1CCN(C2CN(c3cnc4ccc(-c5ccc6oc(N)nc6c5)nc4c3)C2)CC1 [Compound 623] | – | – | – | – | – | < 5.00 | > 6.00 | > 5.00 | > 7.00 | > 6.00 |
| CN1CCN(C2CN(c3cnc4ccc(-c5ccc6oc(N)nc6c5)nc4c3)C2)CC1 [Compound 625] | – | – | – | – | – | < 5.00 | > 6.00 | > 6.00 | > 7.00 | > 6.00 |
